We go through five compounds from US20140187618A1, “COMPOSITIONS, METHODS AND KITS USING FOR INDUCING OR ENHANCING NEUROGENESIS IN CELLS AND TISSUE” (Biocrescentia, LLC, priority 2012, published 2014).

Assay [1] has as its system macrophages. As to conditions: cultured in vitro model; cited from earlier work.
For assay [2], the system named is TNF-α, interleukin-6 and interleukin-12. As to conditions: mice treated with lipopolysaccharide; cited from earlier work.
The subject of assay [3] is Leishmania amazonensis. As to conditions: cited from earlier work.
The conditions of assay [4]: in vivo; cited from earlier work.
In assay [5] the test system is BrdU-positive cells in the subgranule layer of the hippocampus. Kind of assay: BrdU quantification of hippocampal stem cell proliferation, dosing every 7 days for 90 days. Type of assay: in vivo, BalbC mice. As to conditions: 5 mg/kg every 7 days for 90 days. As to the method: (§1) Adult six to eight week old male BalbC mice were obtained and kept in cages at room temperature, allowed access to food and water ad libidum, and subjected to 12-hour light/darkness cycles. All procedures were conducted in accordance with the guide for laboratory animal care of the Institute of Biological Sciences/Federal University of Pará (ICB/UFPA) Ethics Committee.
(§2) For BrdU analysis, animal subjects were administered BrdU (50 mg/kg) and were euthanized, and then were perfused with saline and 4% paraformaldehyde (PFA). The brain tissues were dissected and fixed at 4° C. in 4% PFA for 12 hours, then cryoprotected in 20% sucrose. The brain tissues were sliced at 40 micrometers (microns, μm) in a cryostat. […]
To further analyze and quantitate hippocampal stem cell proliferation, effect of physalins on this proliferation, and survival of subjects, groups of subjects were administered a dose of 50 mg/kg BrdU intraperitoneally and 5 mg/kg of PD or AE every 7 days for 90 days. […] The total number of BrdU-positive cells in the subgranule layer of the hippocampus was quantified. The number of BrdU-positive cells was calculated by measuring the area (ten micrometers corresponds to two cell bodies) between the hilus and the hippocampal granule layer in each cut by the method of Bastos et al. 2008 J. Ethnopharmacol. […]

Assay [6] concerns hippocampus cells (nestin-positive cells). The assay can be described thus: Nestin immunostaining of hippocampus cell culture. Type of assay: cell-based, Wistar rats. As to conditions: 10 μM of PD for 24 hours; control EGF and FGF-2 10 ng/ml. As to the method:
The hippocampi of Wistar rats (post natal days one to five) were dissected and mechanically dissociated. Viable cells were plated in four wells of a multi-well culture dish (NUNC Inc.) at a density of 10^6 cells/well containing neurobasal medium without serum or growth factor. After 24 hours, the cells were washed and PD was added to the cells (treated group). Control cells (absent PD) were treated with 10 nanograms per milliliter (ng/ml) of each of EGF and FGF-2 only. Cultures were incubated at 37° C. with 5% CO2 and 95% atmospheric air.
Hippocampus cells were cultured with 10 μM of PD for 24 hours, and the cells were then immunostained for using an anti-nestin antibody. Nestin is an intermediate filament protein expressed in dividing cells during the early stages of development in the central nervous system (CNS), peripheral nervous system (PNS) and in myogenic and other tissues. Without being limited by any particular theory or mechanism of action, it is here envisioned that presence of nestin in hippocampus cells indicates the presence of progenitor stem cells.

For assay [7], the system named is neural stem cells in the dentate gyrus of the hippocampus. Kind of assay: BrdU quantification of hippocampal stem cell proliferation in adult mice. Also noted: species or system BalbC mice. As to conditions: in vivo and in vitro; summary statement. On the procedure: as §1, §2
To analyze hippocampal stem cell proliferation and effect of physalins on this proliferation, groups of subjects were administered a dose of 50 mg/kg BrdU intraperitoneally and different doses of PD. […] The total number of BrdU-positive cells in the subgranule layer of the hippocampus was quantified. The number of BrdU-positive cells was calculated by measuring the area (ten micrometers corresponds to two cell bodies) between the hilus and the hippocampal granule layer in each cut (Bastos et al. 2008 J. Ethnopharmacol. 118(2): pages 246-251). […]
A qualitative analysis of BrdU-labeled cells in the dentate gyrus of adult mice was also performed using fluorescence microscopy. […]

SMILES strings stand for the structures.

For `C[C@]12C(=O)C=CCC1=CC[C@@H]1[C@@H]2CC[C@@]2(O)C(=O)O[C@@]3(C)[C@H]4C[C@@]5(C)[C@@H](CO[C@@]16O[C@]23[C@H]5C6=O)C(=O)O4` [Physalin B], in assay [1], the “macrophages activation by lipopolysaccharide and interferon-γ” value (“macrophages activation” below) is “inhibit macrophages activation”; the nitric oxide production entry is “substantial reduction in nitric oxide production”. In assay [2], the “levels of TNF-α in serum” value was “significantly reduce levels”, the “levels of interleukin-6 in serum” value is recorded as “significantly reduce levels” and the “levels of interleukin-12 in serum” value was “significantly reduce levels”. The “growth of Leishmania amazonensis in macrophages infected with the parasite” value in assay [3] is given as “inhibit the growth”.
As for `CNCCC(Oc1ccc(C(F)(F)F)cc1)c1ccccc1` (stereo not shown) [fluoxetine], the “reduction of stress-induced neurogenesis” value in assay [4] is listed as “reverses or prevents the reduction of stress-induced neurogenesis”.
Turning to `C[C@@]12C[C@H]3OC(=O)[C@@H]1CO[C@]14O[C@]5([C@H]2C1=O)[C@@](O)(CC[C@H]1[C@H]4C[C@H]2O[C@]24CC=CC(=O)[C@]14C)C(=O)O[C@@]35C` [Physalin F], in assay [1], the “macrophages activation” value was “inhibit macrophages activation”; the nitric oxide production entry is recorded as “substantial reduction in nitric oxide production”. Also, the “growth of Leishmania amazonensis in macrophages infected with the parasite” value in assay [3] is listed as “inhibit the growth”.
Consider `C[C@]12C(=O)C=CCC1C(O)CC1C2CC[C@]2(O)C(=O)O[C@@]3(C)[C@H]4C[C@@]5(C)C6C(=O)[C@]1(OC[C@H]5C(=O)O4)O[C@@]632` (stereo partly shown) [Physalin G], for which, in assay [1], the “macrophages activation” value is reported as “inhibit macrophages activation”; the nitric oxide production entry is given as “substantial reduction in nitric oxide production”.
Take `C[C@@]12C[C@H]3OC(=O)[C@@H]1CO[C@]14O[C@]5([C@H]2C1=O)[C@@](O)(CC[C@H]1[C@H]4C[C@@H](O)[C@@]2(O)CC=CC(=O)[C@]12C)C(=O)O[C@@]35C` [Physalin D]: in assay [5], the “actively dividing cells in adult hippocampus tissues” value is “promotes the increase of actively dividing cells” and the cell survival entry is on record as “improves cell survival for at least three months”. Also, the “number of nestin-positive cells in the hippocampus cell culture” value in assay [6] is “increased the number of nestin-positive cells”. Further, in assay [7], the neurogenic activity result is “neurogenic activity in vivo and in vitro”.
